Test results reported in patent US12227488B2, “Small molecule degraders of Helios and methods of use” (DANA-FARBER CANCER INSTITUTE, INC., priority 2018, dated 2025).

Columns and labels:
CRBN and Helios (IKZF2) = biological target: T1, CRBN and Helios (IKZF2) (Homo sapiens, UniProt Q96SW2+Q9UKS7); experiment: TR-FRET dimerization assay (CRBN-IKZF2 ternary complex formation); assay type: binding; details: n=1
T1 construct: His (N); Strep (N)
Experimental: A focused library of imide analogs was synthesized and assessed for their ability to induce dimerization between CRBN and Helios in a time-resolved fluorescence energy transfer (TR-FRET) assay (FIG. 1A).
Prior to TR-FRET measurements being conducted, the reactions were incubated for 15 min at rt. […] The TR-FRET signal of each data point was extracted by calculating the 520/490 nm ratios. Data from single measurements (n=1), each calculated as an average of at least three technical replicates per well per experiment are presented in Table 1.
BODIPY-labeled CRBN in complex with Damage Specific DNA Binding Protein 1 (DDB1) harboring an internal deletion of the flexible BPB propeller (DDB1AB-CRBN) and in vitro biotinylated IKZF2 were treated with increasing concentrations of the indicated compounds in the presence of tracer amounts of Terbium-Streptavidin (Tb-SA). Compound-induced recruitment of IKZF2 to CRBN was quantified following the 520/490 TR-FRET ratio using a PHERAstar® plate reader (BMG) utilizing two synchronized PMTs to reduce background.

IKZF2 = experiment: Cellular degradation assay, eGFP-IKZF2Δ fusion with mCherry reporter in Flp-In 293 cells; assay type: cell-based; details: for IKZF2 GFP/RFP Relative Abundance: 5 h incubation, n=1; for degradation selectivity IKZF2/IKZF1: from DC50 values of Table 3; for DC50: half degradation at 5 h (DC50,5 h), triplicate, 11 point dose response
Experimental: (§1) IKZF1Δ, IKZF2Δ, GSPT1 and SALL4 ZnF1-2 were subcloned into mammalian pcDNA5/FRT Vector (Ampicillin and Hygromycin B resistant) modified to contain MCS-eGFP-P2A-mCherry. […] Following 2-3 passage cycle, FACS (FACSAria™ II, BD) was used to enrich for cells expressing eGFP and mCherry. Cells stably expressing the IKZF1Δ, IKZF2Δ, GSPT1 or SALL4 Znf1-2 GFP fusions with mCherry reporter were seeded at 30-50% confluency in 384-well plates with 50 μL FluoroBrite™ DMEM media (Thermo Fisher Scientific, A18967) containing 10% FBS per well a day before compound treatment. Compound titrations were dispensed using a D300e Digital Dispenser (HP), normalized to 0.5% DMSO, and incubated with cells for 5 hours.
(§2) The resulting images were analyzed using CellProfiler™. A series of image analysis steps (‘image analysis pipeline’) was constructed. First, the red and green channels were aligned and cropped to target the middle of each well (to avoid analysis of heavily clumped cells at the edges), and a background illumination function was calculated for both red and green channels of each well individually and subtracted to correct for illumination variations across the 384-well plate from various sources of error. An additional step was then applied to the green channel to suppress the analysis of large auto fluorescent artifacts and enhance the analysis of cell specific fluorescence by way of selecting for objects under a given size, 30 A.U., and with a given shape, speckles. mCherry-positive cells were then identified in the red channel filtering for objects between 8-60 pixels in diameter and using intensity to distinguish between clumped objects. The green channel was then segmented into GFP positive and negative areas and objects were labeled as GFP positive if at least 40% of it overlapped with a GFP positive area. The fraction of GFP-positive cells/mCherry-positive cells in each well was then calculated, and the green and red images were rescaled for visualization.
(§3) The degradation assay was performed as described above. […] Degradation was measured after 5 h of compound treatment and the concentrations that lead to half degradation at 5 h (DC50,5 h) were calculated using the nonlinear fit variable slope model (GraphPad Software).

IKZF1 = biological target: T2, IKZF1 (Homo sapiens, UniProt Q13422); experiment: Cellular degradation assay, eGFP-IKZF1Δ fusion with mCherry reporter in Flp-In 293 cells; assay type: cell-based; details: for IKZF1 GFP/RFP Relative Abundance: 5 h incubation, n=1; for DC50: half degradation at 5 h (DC50,5 h), triplicate, 11 point dose response
T2 construct: expressed in transfected cells; host or cells: Flp-In 293
Experimental: as §1, §2, §3

GSPT1 = GSPT1 (Homo sapiens, UniProt P15170+Q96SW2); experiment: Cellular degradation assay, eGFP-GSPT1 fusion with mCherry reporter in Flp-In 293 cells; assay type: cell-based; design: expressed in transfected cells; host or cells: Flp-In 293; details: for GSPT1 GFP/RFP Relative Abundance: 5 h incubation, n=1; for DC50: half degradation at 5 h (DC50,5 h), triplicate, 11 point dose response
Experimental: as §1, §2, §3

[1] = compound concentration 6.6667E−05
[2] = compound concentration 6.6667E−06
[3] = compound concentration 6.6667E−07 (667 nM)
[4] = compound concentration 2.00E−05
[5] = compound concentration 2.00E−06
[6] = compound concentration 2.00E−07

T2 sequence (Q13422 83-213 isoform Q13422-7 limits assumed): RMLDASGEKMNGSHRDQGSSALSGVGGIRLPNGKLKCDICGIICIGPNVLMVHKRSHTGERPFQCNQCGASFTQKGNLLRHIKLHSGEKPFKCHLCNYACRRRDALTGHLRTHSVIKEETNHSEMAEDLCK
T2 sequence (Q96SW2 whole entry partner, the tested form may be a part): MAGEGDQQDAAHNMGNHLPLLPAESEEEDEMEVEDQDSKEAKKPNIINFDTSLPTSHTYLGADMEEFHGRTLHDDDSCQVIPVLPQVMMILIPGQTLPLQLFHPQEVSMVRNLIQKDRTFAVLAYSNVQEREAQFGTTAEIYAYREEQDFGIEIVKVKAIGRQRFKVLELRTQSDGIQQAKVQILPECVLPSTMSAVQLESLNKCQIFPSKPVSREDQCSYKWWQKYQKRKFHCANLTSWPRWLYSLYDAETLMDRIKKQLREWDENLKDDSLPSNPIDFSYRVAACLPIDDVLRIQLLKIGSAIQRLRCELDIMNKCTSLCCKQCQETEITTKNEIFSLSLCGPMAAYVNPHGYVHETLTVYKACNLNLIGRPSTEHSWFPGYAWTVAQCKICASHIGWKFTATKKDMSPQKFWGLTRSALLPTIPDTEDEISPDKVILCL
T2 sequence (Q16531 2-1140 partner limits assumed): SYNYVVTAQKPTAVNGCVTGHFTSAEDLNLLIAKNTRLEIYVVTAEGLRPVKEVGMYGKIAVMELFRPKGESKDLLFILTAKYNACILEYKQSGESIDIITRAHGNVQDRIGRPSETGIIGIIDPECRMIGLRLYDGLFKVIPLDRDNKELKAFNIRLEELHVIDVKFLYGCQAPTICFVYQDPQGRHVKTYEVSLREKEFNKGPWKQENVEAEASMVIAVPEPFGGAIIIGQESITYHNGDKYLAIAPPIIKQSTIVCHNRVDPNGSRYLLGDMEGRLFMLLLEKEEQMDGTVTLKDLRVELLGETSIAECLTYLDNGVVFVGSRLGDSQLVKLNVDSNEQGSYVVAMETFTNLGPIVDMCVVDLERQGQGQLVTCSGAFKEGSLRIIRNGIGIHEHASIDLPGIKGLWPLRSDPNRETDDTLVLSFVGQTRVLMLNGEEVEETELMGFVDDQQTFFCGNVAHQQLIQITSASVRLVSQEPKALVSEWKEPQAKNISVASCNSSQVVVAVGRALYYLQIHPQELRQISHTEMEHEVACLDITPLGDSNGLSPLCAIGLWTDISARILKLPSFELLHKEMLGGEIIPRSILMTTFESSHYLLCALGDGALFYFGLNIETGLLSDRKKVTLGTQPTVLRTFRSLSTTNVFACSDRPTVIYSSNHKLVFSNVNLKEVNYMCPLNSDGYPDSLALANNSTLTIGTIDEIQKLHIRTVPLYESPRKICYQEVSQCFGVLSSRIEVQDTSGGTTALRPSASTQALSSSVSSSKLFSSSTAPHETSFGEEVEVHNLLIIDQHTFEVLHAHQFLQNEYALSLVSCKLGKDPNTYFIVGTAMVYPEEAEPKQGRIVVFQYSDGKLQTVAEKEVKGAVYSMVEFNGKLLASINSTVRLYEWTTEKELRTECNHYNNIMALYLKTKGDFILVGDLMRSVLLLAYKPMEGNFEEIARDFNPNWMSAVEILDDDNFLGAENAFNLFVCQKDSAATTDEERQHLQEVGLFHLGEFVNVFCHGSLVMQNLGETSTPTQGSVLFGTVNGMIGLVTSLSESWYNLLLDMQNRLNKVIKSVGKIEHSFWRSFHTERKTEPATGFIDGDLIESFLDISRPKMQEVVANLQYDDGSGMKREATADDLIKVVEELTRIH
Chain of GSPT1 (P15170 whole entry, the tested form may be a part): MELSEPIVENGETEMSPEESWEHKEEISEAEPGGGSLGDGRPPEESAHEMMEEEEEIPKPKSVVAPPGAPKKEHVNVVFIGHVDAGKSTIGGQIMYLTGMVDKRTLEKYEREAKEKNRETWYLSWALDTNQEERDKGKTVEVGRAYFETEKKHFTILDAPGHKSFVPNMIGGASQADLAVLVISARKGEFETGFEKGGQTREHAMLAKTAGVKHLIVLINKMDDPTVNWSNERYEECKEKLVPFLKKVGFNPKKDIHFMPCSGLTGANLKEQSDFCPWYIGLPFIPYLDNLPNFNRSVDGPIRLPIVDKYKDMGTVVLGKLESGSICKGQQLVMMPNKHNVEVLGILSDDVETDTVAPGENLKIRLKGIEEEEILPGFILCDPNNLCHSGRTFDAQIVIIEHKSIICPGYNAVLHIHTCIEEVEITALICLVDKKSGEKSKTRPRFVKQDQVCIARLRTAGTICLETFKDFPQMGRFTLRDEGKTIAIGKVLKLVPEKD
Chain of GSPT1 (Q96SW2 whole entry, the tested form may be a part): as the sequence (Q96SW2 whole entry partner, the tested form may be a part) above
Chain of GSPT1 (Q16531 whole entry partner, the tested form may be a part): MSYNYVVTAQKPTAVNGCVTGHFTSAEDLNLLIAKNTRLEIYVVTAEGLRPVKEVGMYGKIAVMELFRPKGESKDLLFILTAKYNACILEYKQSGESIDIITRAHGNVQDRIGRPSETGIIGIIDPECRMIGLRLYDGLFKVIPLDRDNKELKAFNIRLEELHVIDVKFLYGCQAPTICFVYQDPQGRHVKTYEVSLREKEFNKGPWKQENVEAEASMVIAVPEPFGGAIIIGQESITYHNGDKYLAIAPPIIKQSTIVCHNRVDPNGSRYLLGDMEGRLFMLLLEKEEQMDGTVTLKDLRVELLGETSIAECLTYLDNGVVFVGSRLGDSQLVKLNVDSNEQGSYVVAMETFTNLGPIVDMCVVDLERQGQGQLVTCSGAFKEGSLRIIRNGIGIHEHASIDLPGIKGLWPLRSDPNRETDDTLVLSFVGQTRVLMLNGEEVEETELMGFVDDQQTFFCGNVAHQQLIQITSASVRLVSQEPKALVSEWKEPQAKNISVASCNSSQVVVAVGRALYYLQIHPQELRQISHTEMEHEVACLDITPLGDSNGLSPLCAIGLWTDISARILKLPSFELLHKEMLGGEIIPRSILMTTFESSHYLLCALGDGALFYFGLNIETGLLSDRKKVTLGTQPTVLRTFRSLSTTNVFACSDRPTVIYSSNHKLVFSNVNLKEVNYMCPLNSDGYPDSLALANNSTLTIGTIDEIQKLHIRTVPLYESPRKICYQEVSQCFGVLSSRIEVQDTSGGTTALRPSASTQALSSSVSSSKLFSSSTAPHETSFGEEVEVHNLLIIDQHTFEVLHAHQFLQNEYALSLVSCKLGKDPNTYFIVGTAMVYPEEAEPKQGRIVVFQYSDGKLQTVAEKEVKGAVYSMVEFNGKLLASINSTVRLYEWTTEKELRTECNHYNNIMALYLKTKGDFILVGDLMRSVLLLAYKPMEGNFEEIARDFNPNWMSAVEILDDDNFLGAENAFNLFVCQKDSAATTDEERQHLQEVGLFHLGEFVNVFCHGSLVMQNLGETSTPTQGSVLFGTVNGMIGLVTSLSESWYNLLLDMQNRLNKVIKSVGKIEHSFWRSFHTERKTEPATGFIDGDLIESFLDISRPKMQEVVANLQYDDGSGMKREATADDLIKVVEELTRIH
T1 sequence (Q96SW2 whole entry): as the sequence (Q96SW2 whole entry partner, the tested form may be a part) above
T1 sequence (Q9UKS7 whole entry): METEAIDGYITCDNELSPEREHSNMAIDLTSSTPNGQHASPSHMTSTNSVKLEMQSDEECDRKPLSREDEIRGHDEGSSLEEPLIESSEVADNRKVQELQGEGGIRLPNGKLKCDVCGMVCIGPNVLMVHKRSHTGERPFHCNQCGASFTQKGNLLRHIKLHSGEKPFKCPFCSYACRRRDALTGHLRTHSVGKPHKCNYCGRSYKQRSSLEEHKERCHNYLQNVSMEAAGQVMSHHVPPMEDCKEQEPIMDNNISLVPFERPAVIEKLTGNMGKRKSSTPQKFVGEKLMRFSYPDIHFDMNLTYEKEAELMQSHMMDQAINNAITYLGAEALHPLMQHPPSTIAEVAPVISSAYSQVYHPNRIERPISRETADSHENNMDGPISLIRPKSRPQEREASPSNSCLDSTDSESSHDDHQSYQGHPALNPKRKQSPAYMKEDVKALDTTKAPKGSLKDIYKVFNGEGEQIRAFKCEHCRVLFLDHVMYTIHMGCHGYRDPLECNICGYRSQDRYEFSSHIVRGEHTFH

SMILES	TR-FRET-IKZF2 (Normalized to CC-885) (CRBN and Helios (IKZF2); [1])	TR-FRET-IKZF2 (Normalized to CC-885) (CRBN and Helios (IKZF2); [2])	TR-FRET-IKZF2 (Normalized to CC-885) (CRBN and Helios (IKZF2); [3])	IKZF2 GFP/RFP Relative Abundance (IKZF2; [4])	IKZF2 GFP/RFP Relative Abundance (IKZF2; [5])	IKZF2 GFP/RFP Relative Abundance (IKZF2; [6])	IKZF1 GFP/RFP Relative Abundance (IKZF1; [4])	IKZF1 GFP/RFP Relative Abundance (IKZF1; [5])	IKZF1 GFP/RFP Relative Abundance (IKZF1; [6])	GSPT1 GFP/RFP Relative Abundance (GSPT1; [4])	GSPT1 GFP/RFP Relative Abundance (GSPT1; [5])	GSPT1 GFP/RFP Relative Abundance (GSPT1; [6])	degradation selectivity IKZF2/IKZF1 (IKZF2) [fold]	DC50 (IKZF2) [nM]	DC50 (IKZF1) [nM]	DC50 (GSPT1) [nM]	potency of IKZF2 degradation, in words (IKZF2; Table 3 summary)	potency of IKZF1 degradation, in words (IKZF1; Table 3 summary)
O=C1CCC(N2C(=O)C=C(Nc3cccc(NC(=O)Nc4ccc(Cl)c(Cl)c4)c3)C2=O)C(=O)N1 (stereo not shown) [Compound 56, 1-(3,4-dichlorophenyl)-3-(3-((1-(2,6-dioxopiperidin-3-yl)-2,5-dioxo-2,5-dihydro-1H-pyrrol-3-yl)amino)phenyl)urea]	0.383	0.282	0.187	1.092	1.025	0.983	1.190	0.319	0.403	1.572	0.074	0.112						
CC(C)(NC(=O)Cc1cccc(C(F)(F)F)c1)c1cccc(NC2=CC(=O)N(C3CCC(=O)NC3=O)C2=O)c1 (stereo not shown) [Compound 139, N-(2-(3-((1-(2,6-dioxopiperidin-3-yl)-2,5-dioxo-2,5-dihydro-1H-pyrrol-3-yl)amino)phenyl)propan-2-yl)-2-(3-(trifluoromethyl)phenyl)acetamide]													10	17	167	> 1000		
Cc1ccc(CC(=O)NCc2cccc(NC3=CC(=O)N(C4CCC(=O)NC4=O)C3=O)c2)cc1C (stereo not shown) [Compound 60, 2-(3,4-dimethylphenyl)-N-(3-((1-(2,6-dioxopiperidin-3-yl)-2,5-dioxo-2,5-dihydro-1H-pyrrol-3-yl)amino)benzyl)acetamide]	1.082	0.945	0.833	0.087	0.151	0.185	0.132	0.078	0.091	0.387	0.558	0.528						
Cc1ccc(NC(=O)N(C)Cc2cccc(NC3=CC(=O)N(C4CCC(=O)NC4=O)C3=O)c2)cc1Cl (stereo not shown) [Compound 52, 3-(3-chloro-4-methylphenyl)-1-(3-((1-(2,6-dioxopiperidin-3-yl)-2,5-dioxo-2,5-dihydro-1H-pyrrol-3-yl)amino)benzyl)-1-methylurea]	1.559	1.367	1.205	0.058	0.059	0.062	0.103	0.092	0.080	0.308	0.815	0.787						
O=C(Cc1ccc(Cl)c(Cl)c1)NCc1cccc(NC2=CC(=O)N(C3CCC(=O)NC3=O)C2=O)c1 (stereo not shown) [Compound 61, 2-(3,4-dichlorophenyl)-N-(3-((1-(2,6-dioxopiperidin-3-yl)-2,5-dioxo-2,5-dihydro-1H-pyrrol-3-yl)amino)benzyl)acetamide]	1.465	1.248	1.201	0.044	0.045	0.050	0.111	0.104	0.103	0.190	0.466	0.737						
Cc1ccc(NC(=O)Nc2cccc(NC3=CC(=O)N(C4CCC(=O)NC4=O)C3=O)c2)cc1C (stereo not shown) [Compound 55, 1-(3,4-dimethylphenyl)-3-(3-((1-(2,6-dioxopiperidin-3-yl)-2,5-dioxo-2,5-dihydro-1H-pyrrol-3-yl)amino)phenyl)urea]	0.523	0.430	0.321	1.029	0.936	0.938	0.471	0.212	0.251	0.096	0.153	0.180						
CCC(NC(=O)Nc1ccc(C)c(Cl)c1)c1cccc(NC2=CC(=O)N(C3CCC(=O)NC3=O)C2=O)c1 (stereo not shown) [Compound 74, 1-(3-chloro-4-methylphenyl)-3-(1-(3-((1-(2,6-dioxopiperidin-3-yl)-2,5-dioxo-2,5-dihydro-1H-pyrrol-3-yl)amino)phenyl)propyl)urea]	2.010	1.914	1.817	0.021	0.033	0.032	0.096	0.090	0.114				~4	1.9	7.8	> 1000	most potent against IKZF2	
Cc1ccc(NC(=O)NCCc2cccc(NC3=CC(=O)N(C4CCC(=O)NC4=O)C3=O)c2)cc1Cl (stereo not shown) [Compound 62, 1-(3-chloro-4-methylphenyl)-3-(3-((1-(2,6-dioxopiperidin-3-yl)-2,5-dioxo-2,5-dihydro-1H-pyrrol-3-yl)amino)phenethyl)urea]	1.642	1.563	1.483	0.040	0.015	0.036	0.133	0.098	0.109	0.353	1.021	1.208		29	26	> 1000		
CC(NC(=O)Cc1cccc(C(F)(F)F)c1)c1cccc(NC2=CC(=O)N(C3CCC(=O)NC3=O)C2=O)c1 (stereo not shown) [Compound 142, N-(1-(3-((1-(2,6-dioxopiperidin-3-yl)-2,5-dioxo-2,5-dihydro-1H-pyrrol-3-yl)amino)phenyl)ethyl)-2-(3-(trifluoromethyl)phenyl)acetamide]														16	16	> 1000		
Cc1ccc(NC(=O)COc2cccc(NC3=CC(=O)N(C4CCC(=O)NC4=O)C3=O)c2)cc1Cl (stereo not shown) [Compound 125, N-(3-chloro-4-methylphenyl)-2-(3-((1-(2,6-dioxopiperidin-3-yl)-2,5-dioxo-2,5-dihydro-1H-pyrrol-3-yl)amino)phenoxy)acetamide]														24	1.7	> 1000		most potent against IKZF1
